Measurements from ChEMBL document CHEMBL5608184, “Discovery and mechanistic insights into thieno[3,2-d]pyrimidine and heterocyclic fused pyrimidines inhibitors targeting tubulin for cancer therapy” (Eur J Med Chem, 2024).
Activity calls are given as the source filed them. The rule behind the calls is not given here.

Tests used:
Tubulin (Homo sapiens) [1] = target: T1, Tubulin (Homo sapiens) (UniProt P68371+Q9H4B7+P0DPH7+P68366+Q13509+Q71U36+P04350+Q3ZCM7+P07437+P68363+Q9BQE3+Q6PEY2+Q13885+Q9BVA1+Q9BUF5); experiment: Inhibition of tubulin polymerization in human SK-OV-3 assessed as disruption of microtubule cytoskeleton at 2 nM incubated for 24 hrs by immunofluorescence based analysis; format: cell-based
Tubulin (Homo sapiens) [2] = target: T1, Tubulin (Homo sapiens); experiment: Inhibition of tubulin polymerization in human SK-OV-3 assessed as decrease in cell viability at 2 nM incubated for 24 hrs by immunofluorescence based analysis
SK-OV-3 [3] = experiment: Induction of cell cycle arrest at G2/M phase in human SK-OV-3 cells at 2.5 nM incubated for 24 hrs by PI staining based flow cytometry (reference value: 30.13 %); format: functional
Tubulin (Homo sapiens) [4] = target: T1, Tubulin (Homo sapiens); experiment: Inhibition of tubulin polymerization in human SK-OV-3 assessed as severe cell contraction at 2 nM incubated for 24 hrs by immunofluorescence based analysis
SK-OV-3 [5] = experiment: Induction of cell cycle arrest at G2/M phase in human SK-OV-3 cells assessed as decrease in Cdc-25c level incubated for 24 hrs by Western blot analysis; format: functional, cell-based; conditions: dose 0.625-5 nM
SK-OV-3 [6] = experiment: Induction of apoptosis in human SK-OV-3 cells assessed as decrease in Bcl-2 level incubated for 48 hrs by Western blot analysis; format: functional, cell-based; conditions: dose 0.625-5 nM
SK-OV-3 [7] = experiment: Antiproliferative activity against human SK-OV-3 cells incubated for 48 hrs by CCK8 assay; format: functional, cell-based; conditions: SK-OV-3, 48 h
SK-OV-3 [8] = experiment: Induction of apoptosis in human SK-OV-3 cells assessed as early apoptotic cells at 1.25 nM incubated for 48 hrs by Annexin V-APC-A/7-AAD-A staining based flow cytometry (reference value: 1.10 %); format: functional
SK-OV-3 [9] = experiment: Induction of apoptosis in human SK-OV-3 cells assessed as necrotic cells at 5 nM incubated for 48 hrs by Annexin V-APC-A/7-AAD-A staining based flow cytometry (reference value: 0.21 %); format: functional
SK-OV-3 [10] = experiment: Inhibition of colony formation in human SK-OV-3 cells incubated for 3 days by crystal violet staining based analysis; format: functional, cell-based; conditions: dose 0.625-5 nM, time 3.0 day
SK-OV-3 [11] = experiment: Inhibition of cell migration in human SK-OV-3 cells assessed as migration rate at 2.5 nM incubated for 24 hrs by wound healing assay relative to control; format: functional; design: scale not given: the % may be the effect or the level left
SK-OV-3 [12] = experiment: Induction of apoptosis in human SK-OV-3 cells assessed as increase in cleaved caspase-9 level incubated for 48 hrs by Western blot analysis; format: functional, cell-based; conditions: dose 0.625-5 nM
SK-OV-3 [13] = experiment: Induction of apoptosis in human SK-OV-3 cells assessed as increase in cleaved PARP level incubated for 48 hrs by Western blot analysis; format: functional, cell-based; conditions: dose 0.625-5 nM
SK-OV-3 [14] = experiment: Inhibition of cell migration in human SK-OV-3 cells assessed as migration rate at 1.25 nM incubated for 24 hrs by wound healing assay relative to control; format: functional; design: scale not given: the % may be the effect or the level left
A2780 = experiment: Antiproliferative activity against human A2780 cells incubated for 48 hrs by CCK8 assay; format: functional, cell-based; conditions: A2780, 48 h
SK-OV-3 [15] = experiment: Induction of apoptosis in human SK-OV-3 cells assessed as late apoptotic cells at 0.625 nM incubated for 48 hrs by Annexin V-APC-A/7-AAD-A staining based flow cytometry (reference value: 1.20 %); format: functional
SK-OV-3 [16] = experiment: Induction of apoptosis in human SK-OV-3 cells assessed as increase in cleaved caspase-3 level incubated for 48 hrs by Western blot analysis; format: functional, cell-based; conditions: dose 0.625-5 nM
SK-OV-3 [17] = experiment: Induction of apoptosis in human SK-OV-3 cells assessed as viable cells at 2.5 nM incubated for 48 hrs by Annexin V-APC-A/7-AAD-A staining based flow cytometry (reference value: 97.50 %); format: functional; conditions: read-out: Activity
Tubulin (Homo sapiens) [18] = target: T1, Tubulin (Homo sapiens); experiment: Inhibition of tubulin polymerization in human SK-OV-3 assessed as condensation of microtubule at cell periphery at 2 nM incubated for 24 hrs by immunofluorescence based analysis
[19] = Antiproliferative activity against Paclitaxel-resistant human A2780 cells incubated for 48 hrs by CCK8 assay; format: functional, cell-based; conditions: Paclitaxel-resistant A2780, 48 h
SK-OV-3 [20] = experiment: Induction of cell cycle arrest at G2/M phase in human SK-OV-3 cells assessed as increase in Cyclin B level incubated for 24 hrs by Western blot analysis; format: functional, cell-based; conditions: dose 0.625-5 nM
A549 = experiment: cells; conditions: Homo sapiens, A549, 48 h
Description: Antiproliferative activity against human A549 cells incubated for 48 hrs by CCK8 assay

HCC827 = experiment: Antiproliferative activity against human HCC827 cells incubated for 48 hrs by CCK8 assay; format: functional, cell-based; conditions: HCC827, 48 h
Sus scrofa = species on record: Sus scrofa; experiment: Inhibition of porcine brain tubulin polymerization measured for 60 min by fluorescence based assay; conditions: dose 10.0 µM
SK-OV-3 [21] = experiment: Inhibition of cell migration in human SK-OV-3 cells assessed as relative wound density at 2.5 nM incubated for 24 hrs by wound healing assay (reference value: 61.61 %); format: functional; design: scale not given: the % may be the effect or the level left
SK-OV-3 [22] = experiment: Inhibition of cell migration in human SK-OV-3 cells assessed as migration rate at 5 nM incubated for 24 hrs by wound healing assay relative to control; format: functional; design: scale not given: the % may be the effect or the level left
SK-OV-3 [23] = experiment: Inhibition of cell migration in human SK-OV-3 cells assessed as migration rate at 0.625 nM incubated for 24 hrs by wound healing assay relative to control; format: functional; design: scale not given: the % may be the effect or the level left
SK-OV-3 [24] = experiment: Induction of apoptosis in human SK-OV-3 cells assessed as late apoptotic cells at 2.5 nM incubated for 48 hrs by Annexin V-APC-A/7-AAD-A staining based flow cytometry (reference value: 1.22 %); format: functional
SK-OV-3 [25] = experiment: Induction of apoptosis in human SK-OV-3 cells assessed as viable cells at 0.625 nM incubated for 48 hrs by Annexin V-APC-A/7-AAD-A staining based flow cytometry (reference value: 97.17 %); format: functional; conditions: read-out: Activity
SK-OV-3 [26] = experiment: Induction of cell cycle arrest at G2/M phase in human SK-OV-3 cells at 2.5 nM incubated for 24 hrs by PI staining based flow cytometry (reference value: 29.73 %); format: functional
SK-OV-3 [27] = experiment: Induction of cell cycle arrest at G2/M phase in human SK-OV-3 cells at 1.25 nM incubated for 24 hrs by PI staining based flow cytometry (reference value: 29.73 %); format: functional
SK-OV-3 [28] = experiment: Induction of apoptosis in human SK-OV-3 cells assessed as viable cells at 1.25 nM incubated for 48 hrs by Annexin V-APC-A/7-AAD-A staining based flow cytometry (reference value: 97.17 %); format: functional; conditions: read-out: Activity
SK-OV-3 [29] = experiment: Induction of apoptosis in human SK-OV-3 cells assessed as necrotic cells at 5 nM incubated for 48 hrs by Annexin V-APC-A/7-AAD-A staining based flow cytometry (reference value: 0.48 %); format: functional
SK-OV-3 [30] = experiment: Induction of apoptosis in human SK-OV-3 cells assessed as necrotic cells at 1.25 nM incubated for 48 hrs by Annexin V-APC-A/7-AAD-A staining based flow cytometry (reference value: 0.48 %); format: functional
SK-OV-3 [31] = experiment: Induction of apoptosis in human SK-OV-3 cells assessed as early apoptotic cells at 1.25 nM incubated for 48 hrs by Annexin V-APC-A/7-AAD-A staining based flow cytometry (reference value: 1.12 %); format: functional
SK-OV-3 [32] = experiment: Induction of cell cycle arrest at G2/M phase in human SK-OV-3 cells at 0.625 nM incubated for 24 hrs by PI staining based flow cytometry (reference value: 29.73 %); format: functional

Structure (SMILES)	inhibition (Tubulin (Homo sapiens) [1])	inhibition (Tubulin (Homo sapiens) [2])	inhibition (Tubulin (Homo sapiens) [4])	Activity (SK-OV-3 [5])	Activity (SK-OV-3 [6])	IC50 (SK-OV-3 [7]) [nM]	inhibition (SK-OV-3 [10])	Activity (SK-OV-3 [11]) [%]	Activity (SK-OV-3 [12])	Activity (SK-OV-3 [13])	Activity (SK-OV-3 [14]) [%]	IC50 (A2780) [nM]	Activity (SK-OV-3 [16])	inhibition (Tubulin (Homo sapiens) [18])	IC50 [19] [nM]	Activity (SK-OV-3 [20])	IC50 (A549) [nM]	IC50 (HCC827) [nM]	inhibition (Sus scrofa)	Activity (SK-OV-3 [22]) [%]	further results
COc1ccc(N(C)c2nc(Cl)nc3ccn(C)c23)cc1	Active	Active	Active	Active	Dose-Dependent Effect	1.32	Dose-Dependent Effect	81.73	Dose-Dependent Effect	Dose-Dependent Effect	94.75	1.56	Dose-Dependent Effect	Active	2.26	Active	1.76	1.74	Dose-Dependent Effect	56.82	Activity (SK-OV-3 [3]): 52.19%; Activity (SK-OV-3 [8]): 2.83%; Activity (SK-OV-3 [9]): 2.25%; Activity (SK-OV-3 [15]): 1.93%; viability at 0.0025 µM (SK-OV-3 [17]): 75.9%; Activity (SK-OV-3 [21]): 6.33%; Activity (SK-OV-3 [23]): 102.55%
COc1ccc2c(c1)NC(=O)CN2c1nc(Cl)nc2ccsc12	Active	Active	Active	Active	Dose-Dependent Effect	0.31	Dose-Dependent Effect	50.2	Dose-Dependent Effect	Dose-Dependent Effect	70.73	0.38	Dose-Dependent Effect	Active	0.75	Active	0.84	0.34	Dose-Dependent Effect	23.64	Activity (SK-OV-3 [24]): 4.71%; viability at 0.000625 µM (SK-OV-3 [25]): 81%; Activity (SK-OV-3 [26]): 88.2%; Activity (SK-OV-3 [27]): 85.13%; viability at 0.00125 µM (SK-OV-3 [28]): 54.3%; Activity (SK-OV-3 [29]): 2.06%; Activity (SK-OV-3 [30]): 2.6%; Activity (SK-OV-3 [31]): 38.42%; Activity (SK-OV-3 [32]): 41.72%; Activity (SK-OV-3 [23]): 84.28%
